EC50 and Emax data for four molecules are collected here from patent publication US20230265151A1, “GIP/GLP1 CO-AGONIST COMPOUNDS” (priority 2020, published 2023).

Read-outs that look alike come from different tables or passages of the source. Where a SMILES comes first, the peptide text is derived from it. Side-chain parts run from the residue outwards. [ ]: non-standard residue; d: D form. The star is where a group is joined. αMePhe(2-F) = C[C@](N)(Cc1ccccc1F)C(=O)O; C14 diacid = O=C(O)CCCCCCCCCCCCC(=O)*; αMeY = C[C@](N)(Cc1ccc(O)cc1)C(=O)O; αMeL = CC(C)C[C@](C)(N)C(=O)O; Orn = NCCC[C@H](N)C(=O)O; AEEA = NCCOCCOCC(=O)O; Aib = CC(C)(N)C(=O)O

Holding throughout (format): cell-based
For one assay, the target named is T1, hGIPR (Homo sapiens, UniProt P48546).
T1 construct: expressed in transfected cells
T1 sequence (P48546 22-466): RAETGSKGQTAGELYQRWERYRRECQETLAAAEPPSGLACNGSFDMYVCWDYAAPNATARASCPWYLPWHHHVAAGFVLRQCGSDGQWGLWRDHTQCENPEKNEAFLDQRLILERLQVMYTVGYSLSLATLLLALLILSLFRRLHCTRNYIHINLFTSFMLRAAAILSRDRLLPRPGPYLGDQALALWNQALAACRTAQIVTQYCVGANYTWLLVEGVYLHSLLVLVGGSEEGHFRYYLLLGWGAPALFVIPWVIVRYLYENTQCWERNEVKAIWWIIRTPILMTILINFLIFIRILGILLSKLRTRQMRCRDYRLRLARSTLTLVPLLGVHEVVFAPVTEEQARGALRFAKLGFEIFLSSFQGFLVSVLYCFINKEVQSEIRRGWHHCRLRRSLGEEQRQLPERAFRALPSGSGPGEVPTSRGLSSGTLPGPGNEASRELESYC
The assay can be described thus: Functional cAMP formation (HTRF) in HEK-293 clonal cells expressing hGIPR, 0.1% bovine casein, without or with 1.0% human serum albumin. As to conditions: for EC50: geometric mean, read-out: hGIPR EC50, nM (SEM, n); for Emax: percent of maximal response to GIP(1-42)NH2, read-out: hGIPR Emax, % ± SEM. Put shortly:
(§1)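 Cells were stimulated with peptide for 30 min at 37° C, then lysed in buffer carrying cAMP-d2 and anti-cAMP Eu3+-cryptate for a competitive HTRF read after at least 60 min at room temperature. The 665/620 nm ratio was converted to nM cAMP against a standard curve.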
For orientation: cAMP levels reflect the balance of adenylyl cyclase and phosphodiesterase activity.

Another assay concerns the target T2, hGCGR (Homo sapiens, UniProt P47871).
T2 construct: expressed in transfected cells
The assay can be described thus: Functional cAMP formation (HTRF) in HEK-293 clonal cells expressing hGCGR, 0.1% bovine casein, without or with 1.0% human serum albumin. Conditions: read-out: hGCGR EC50, nM (SEM, n). Put shortly: as §1

The target in a further assay is hGLP-1R (Homo sapiens, UniProt P43220). The assay can be described thus: Functional cAMP formation (HTRF) in HEK-293 clonal cells expressing hGLP-1R, 0.1% bovine casein, without or with 1.0% human serum albumin. Also noted: expressed in transfected cells. As to conditions: for EC50: read-out: hGLP-1R EC50, nM (SEM, n); for Emax: read-out: hGLP-1R Emax, % ± SEM. An outline of the steps:
as §1

The mark [1] stands for this setting: HEK293, 0.1% bovine casein and 1.0% human serum albumin, 37° C.
[2] abbreviates: 0.1% bovine casein and 1.0% human serum albumin, 37° C., geometric mean.
[3] abbreviates: cAMP, incubated at 37° C., 0.1% bovine casein (no human serum albumin), geometric mean.
The mark [4] stands for this setting: HEK293, cAMP, 37° C., 0.1% bovine casein and 1.0% human serum albumin.
[5] abbreviates: cAMP, 37° C., 0.1% bovine casein (no human serum albumin).
[6] abbreviates: cAMP, 37° C., 0.1% bovine casein (no human serum albumin), geometric mean.
Where [7] appears, read: cAMP, 37° C., 0.1% bovine casein and 1.0% human serum albumin, geometric mean (SEM, n).

Sequence of hGLP-1R (P43220 24-463): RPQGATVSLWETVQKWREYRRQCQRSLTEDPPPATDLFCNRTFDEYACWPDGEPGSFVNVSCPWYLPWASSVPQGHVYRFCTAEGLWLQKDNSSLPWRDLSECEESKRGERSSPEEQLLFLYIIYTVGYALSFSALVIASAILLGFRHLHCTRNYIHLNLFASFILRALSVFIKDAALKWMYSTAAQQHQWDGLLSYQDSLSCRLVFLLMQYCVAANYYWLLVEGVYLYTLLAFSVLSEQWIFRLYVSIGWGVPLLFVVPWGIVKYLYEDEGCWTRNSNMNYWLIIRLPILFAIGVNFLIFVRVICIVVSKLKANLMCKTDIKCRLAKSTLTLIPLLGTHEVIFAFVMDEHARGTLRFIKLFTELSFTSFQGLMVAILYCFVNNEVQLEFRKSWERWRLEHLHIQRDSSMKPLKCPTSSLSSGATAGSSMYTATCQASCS
T2 sequence (P47871 26-477): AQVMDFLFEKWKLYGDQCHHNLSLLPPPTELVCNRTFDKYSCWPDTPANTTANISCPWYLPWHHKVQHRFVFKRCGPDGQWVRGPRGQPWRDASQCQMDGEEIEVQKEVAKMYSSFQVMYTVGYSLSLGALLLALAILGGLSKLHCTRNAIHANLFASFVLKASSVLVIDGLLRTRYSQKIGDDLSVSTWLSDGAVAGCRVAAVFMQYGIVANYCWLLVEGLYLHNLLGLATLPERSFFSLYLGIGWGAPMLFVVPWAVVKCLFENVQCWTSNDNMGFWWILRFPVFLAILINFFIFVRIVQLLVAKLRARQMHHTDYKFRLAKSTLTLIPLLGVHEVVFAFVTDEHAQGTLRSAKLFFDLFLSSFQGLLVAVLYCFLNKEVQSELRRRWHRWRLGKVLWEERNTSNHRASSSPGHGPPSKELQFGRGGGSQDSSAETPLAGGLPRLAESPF

The term EC50 denotes the midpoint of the concentration-response curve. In general, Emax refers to the maximal effect, on the per cent scale that the assay sets. Turning to `CC[C@H](C)[C@H](NC(=O)[C@H](CC(C)C)NC(=O)[C@](C)(Cc1ccc(O)cc1)NC(=O)[C@@H](CCC(=O)O)NC(=O)[C@@H](NC(=O)[C@H](Cc1ccccc1)NC(=O)[C@H](CCC(=O)O)NC(=O)C(C)(C)NC(=O)[C@H](CCC(N)=O)NC(=O)[C@H](C)NC(=O)[C@H](CCCCNC(=O)COCCOCCNC(=O)CC[C@H](NC(=O)CCCc1ccc(C(C)(C)C)cc1)C(=O)O)NC(=O)[C@H](CCCN)NC(=O)[C@H](CC(=O)O)NC(=O)[C@H](CC(C)C)NC(=O)[C@](C)(CC(C)C)NC(=O)[C@@H](NC(=O)[C@H](CO)NC(=O)[C@H](Cc1ccncc1)NC(=O)[C@H](CC(=O)O)NC(=O)[C@H](CO)NC(=O)[C@@H](NC(=O)[C@](C)(Cc1ccccc1F)NC(=O)[C@@H](NC(=O)CNC(=O)[C@H](CCC(=O)O)NC(=O)C(C)(C)NC(=O)[C@@H](N)Cc1ccc(O)cc1)[C@@H](C)O)[C@@H](C)O)[C@@H](C)CC)[C@@H](C)CC)C(=O)N[C@@H](CCC(=O)O)C(=O)NCC(=O)NCC(=O)N1CCC[C@H]1C(=O)N[C@@H](CO)C(=O)N[C@@H](CO)C(=O)NCC(=O)N[C@@H](C)C(=O)N1CCC[C@H]1C(=O)N1CCC[C@H]1C(=O)N1CCC[C@H]1C(=O)N[C@@H](CO)C(=O)N[C@@H](CCCCNC(=O)COCCOCCNC(=O)CC[C@H](NC(=O)CCCc1ccc(C(C)(C)C)cc1)C(=O)O)C(N)=O` [Example 209], the EC50 was 0.173 nM on hGIPR (0.1% bovine casein and 1.0% human serum albumin, 37° C.); 0.0133 nM on hGIPR (cAMP, incubated at 37° C., 0.1% bovine casein (no human serum albumin)); over 9950 nM at hGCGR (setting [2]); over 9950 nM on hGCGR (setting [3]); 1.16 nM on hGLP-1R (setting [2]); 0.235 nM on hGLP-1R (setting [3]). For the same molecule, the Emax at hGIPR (setting [1]) came to 90.8%; on hGLP-1R (HEK293, 0.1% bovine casein and 1.0% human serum albumin, 37° C., percent of maximal response to GLP-1(7-36)NH2), 109%; on hGLP-1R (HEK293, percent of maximal response to GLP-1(7-36)NH2, 37° C., 0.1% bovine casein, arithmetic mean) it was 100%.
For the molecule `CC[C@H](C)[C@H](NC(=O)[C@H](CC(C)C)NC(=O)[C@](C)(Cc1ccc(O)cc1)NC(=O)[C@H](CCCCNC(=O)COCCOCCNC(=O)COCCOCCNC(=O)CC[C@H](NC(=O)CCCCCCCCCCCCC(=O)O)C(=O)O)NC(=O)[C@@H](NC(=O)[C@H](Cc1ccccc1)NC(=O)[C@H](CCCN)NC(=O)C(C)(C)NC(=O)[C@H](CCC(N)=O)NC(=O)[C@H](C)NC(=O)[C@H](CCC(N)=O)NC(=O)[C@H](CCCN)NC(=O)[C@H](CC(=O)O)NC(=O)[C@H](CC(C)C)NC(=O)[C@](C)(CC(C)C)NC(=O)[C@@H](NC(=O)C(C)(C)NC(=O)[C@H](Cc1ccc(O)cc1)NC(=O)[C@H](CC(=O)O)NC(=O)[C@H](CO)NC(=O)[C@@H](NC(=O)[C@](C)(Cc1ccccc1F)NC(=O)[C@@H](NC(=O)CNC(=O)[C@H](CCC(=O)O)NC(=O)C(C)(C)NC(=O)[C@@H](N)Cc1ccc(O)cc1)[C@@H](C)O)[C@@H](C)O)[C@@H](C)CC)[C@@H](C)CC)C(=O)N[C@@H](CCCCNC(=O)COCCOCCNC(=O)COCCOCCNC(=O)CC[C@H](NC(=O)CCCCCCCCCCCCC(=O)O)C(=O)O)C(=O)NCC(=O)NCC(=O)N1CCC[C@H]1C(=O)N[C@@H](CO)C(=O)N[C@@H](CO)C(=O)NCC(=O)N[C@@H](C)C(=O)N1CCC[C@H]1C(=O)N1CCC[C@H]1C(=O)N1CCC[C@H]1C(=O)N[C@@H](CO)C(N)=O` [Example 401], the Emax at hGIPR (setting [4]) worked out at 83%; on hGIPR (HEK293, cAMP, 37° C., 0.1% bovine casein, arithmetic mean), 98.9%. Besides, the EC50 is 0.0112 nM at hGIPR (setting [5]), over 9950 nM at hGCGR (setting [6]), over 9950 nM at hGCGR (setting [7]) and 0.235 nM on hGLP-1R (setting [6]).
For `CCCCCCCCCCCC(=O)N[C@@H](CCC(=O)NCCOCCOCC(=O)NCCOCCOCC(=O)NCCCC[C@H](NC(=O)[C@H](CCCN)NC(=O)[C@H](CC(=O)O)NC(=O)[C@H](CC(C)C)NC(=O)[C@](C)(CC(C)C)NC(=O)[C@@H](NC(=O)C(C)(C)NC(=O)[C@H](CCCCNC(=O)COCCOCCNC(=O)COCCOCCNC(=O)CC[C@H](NC(=O)CCCCCCCCCCC)C(=O)O)NC(=O)[C@H](CC(=O)O)NC(=O)[C@H](CO)NC(=O)[C@@H](NC(=O)[C@](C)(Cc1ccccc1F)NC(=O)[C@@H](NC(=O)CNC(=O)[C@H](CCC(=O)O)NC(=O)C(C)(C)NC(=O)[C@@H](N)Cc1ccc(O)cc1)[C@@H](C)O)[C@@H](C)O)[C@@H](C)CC)C(=O)N[C@@H](C)C(=O)N[C@@H](CCC(N)=O)C(=O)NC(C)(C)C(=O)N[C@@H](CCC(=O)O)C(=O)N[C@@](C)(Cc1ccccc1)C(=O)N[C@H](C(=O)N[C@H](CCC(=O)O)C(=O)N[C@@](C)(Cc1ccc(O)cc1)C(=O)N[C@@H](CC(C)C)C(=O)N[C@H](C(=O)N[C@@H](CCC(=O)O)C(=O)NCC(=O)NCC(=O)N1CCC[C@H]1C(=O)N[C@@H](CO)C(=O)N[C@@H](CO)C(=O)NCC(=O)N[C@@H](C)C(=O)N1CCC[C@H]1C(=O)N1CCC[C@H]1C(=O)N1CCC[C@H]1C(=O)N[C@@H](CO)C(N)=O)[C@@H](C)CC)[C@@H](C)CC)C(=O)O` [Example 429], the Emax on hGIPR (setting [4]) turned out to be 93.3%; on hGLP-1R (HEK293, cAMP, 37° C., 0.1% bovine casein, percent of maximal response to GLP-1(7-36)NH2, arithmetic mean) it was 116%. Besides, the EC50 was 0.00799 nM on hGIPR (setting [5]); over 9950 nM on hGCGR (setting [6]); over 9950 nM on hGCGR (setting [7]); 0.116 nM on hGLP-1R (setting [6]); 17.3 nM at hGLP-1R (setting [7]).
For the molecule `CC[C@H](C)[C@H](NC(=O)[C@H](CC(C)C)NC(=O)[C@](C)(Cc1ccc(O)cc1)NC(=O)[C@@H](CCC(=O)O)NC(=O)[C@@H](NC(=O)[C@H](Cc1ccccc1)NC(=O)[C@H](CCC(=O)O)NC(=O)C(C)(C)NC(=O)[C@H](CCC(N)=O)NC(=O)[C@H](C)NC(=O)[C@H](CCCCNC(=O)COCCOCCNC(=O)COCCOCCNC(=O)CCCCCCCCCCCCC(=O)O)NC(=O)[C@H](CCCN)NC(=O)[C@H](CC(=O)O)NC(=O)[C@H](CC(C)C)NC(=O)[C@](C)(CC(C)C)NC(=O)[C@@H](NC(=O)[C@H](CO)NC(=O)[C@H](Cc1ccc(OC)cc1)NC(=O)[C@H](CC(=O)O)NC(=O)[C@H](CO)NC(=O)[C@@H](NC(=O)[C@](C)(Cc1ccccc1F)NC(=O)[C@@H](NC(=O)CNC(=O)[C@H](CCC(=O)O)NC(=O)C(C)(C)NC(=O)[C@@H](N)Cc1ccc(O)cc1)[C@@H](C)O)[C@@H](C)O)[C@@H](C)CC)[C@@H](C)CC)C(=O)N[C@@H](CCC(=O)O)C(=O)NCC(=O)NCC(=O)N1CCC[C@H]1C(=O)N[C@@H](CO)C(=O)N[C@@H](CO)C(=O)NCC(=O)N[C@@H](C)C(=O)N1CCC[C@H]1C(=O)N1CCC[C@H]1C(=O)N1CCC[C@H]1C(=O)N[C@@H](CO)C(=O)N[C@@H](CCCCNC(=O)COCCOCCNC(=O)COCCOCCNC(=O)CCCCCCCCCCCCC(=O)O)C(N)=O` [Example 267] (H-Y[Aib]EGT[αMePhe(2-F)]TSDY(Me)SI[αMeL]LD[Orn]K([AEEA-AEEA-C14 diacid])AQ[Aib]EFI[dE][αMeY]LIEGGPSSGAPPPSK([AEEA-AEEA-C14 diacid])-NH2), at hGIPR (setting [1]), the Emax is 88.1%. Besides, the half-maximal effective concentration (EC50) was 0.0162 nM on hGIPR (setting [5]), over 9950 nM on hGCGR (setting [2]), over 9950 nM at hGCGR (setting [6]) and 0.271 nM on hGLP-1R (setting [6]).
